Paper PMC1257591, “In Vitro Inhibition of Human Hepatic and cDNA-Expressed Sulfotransferase Activity with 3-Hydroxybenzo[a]pyrene by Polychlorobiphenylols” (Environmental Health Perspectives, 2005)
Like-named read-outs stand apart in the source and are kept apart here.

Legend:
Assay type in all cases: biochemical
SULT1A1*1 = molecular target: T1, SULT1A1*1 (Homo sapiens, UniProt P50225); assay: Inhibition of 3-OH-BaP sulfotransferase activity by OH-PCBs with cDNA-expressed SULT1A1*1; details: for IC50: mean of duplicates
T1 construct: made in house; host or cells: Escherichia coli
From the text: (§1) The expression of human SULT1A1*1, SULT1A3, SULT1B1, and SULT1E1 in Escherichia coli has been described previously ([Dajani et al. 1998]; [Wang et al. 1998]). We grew E. coli cells containing the respective sulfotransferase genes as described previously ([Falany et al. 1990], [1994]), and prepared 100,000g supernatant fractions for use in inhibition studies and for partial purification of the SULT enzymes. We purchased expressed SULT1A1*2 cytosolic extract from PanVera (Madison, WI) and used it as supplied.
(§2) We determined SULT activity with 3-OH-BaP as substrate by a fluorimetric assay of BaP-3-SO4 product formation, as described previously ([Wang et al. 2004]). […] Duplicate tubes were prepared for each incubation condition. We examined the kinetics of sulfonation in three liver cytosol fractions by systematically varying the concentration of 3-OH-BaP or PAPS. When the variable substrate was 3-OH-BaP, we used 12 concentrations in the range from 0.035 to 2.00 μM, and the concentration of PAPS was kept constant at 10 μM. When we varied PAPS, we used 7 concentrations from 0.157 to 10.0 μM and kept the concentration of 3-OH-BaP constant at 0.100 μM.
(§3) For each OH-PCB, we examined the concentration dependence of inhibition with three liver cytosol fractions, as well as with cytosol fractions from the E. coli expressing SULT1A1*1, SULT1A3, SULT1B1, and SULT1E1, and the purchased Sf-9 cytosol fraction (PanVera, Madison, WI) containing SULT1A1*2. For studies with HL cytosol, SULT1A1*1, and SULT1E1, we examined two concentrations of 3-OH-BaP, 0.1 μM and 1.0 μM.
(§4) We calculated the effects of OH-PCBs on 3-OH-BaP SULT activity as percentage inhibition compared with the controls without an inhibitor. We obtained IC50 values by fitting log OH-PCB concentration and percent control activity to a sigmoidal curve. We examined the relationships between IC50 and physicochemical properties of the OH-PCBs by linear correlation analysis. We calculated the inhibitory constant (Ki) from the kinetic studies with 4′-OH-CB112 by means of Dixon plots and plots of Km/Vmax against inhibitor concentration ([Cornish-Bowden 1995]).

SULT1A1*2 = molecular target: T2, SULT1A1*2 (Homo sapiens, UniProt P50225, R213H); assay: Inhibition of 3-OH-BaP sulfotransferase activity by OH-PCBs with expressed SULT1A1*2
T2 construct: purchased PanVera (Madison, WI); host or cells: Sf-9
From the text: as §1, §2, §3, §4

SULT1E1 = molecular target: T3, SULT1E1 (Homo sapiens, UniProt P49888); assay: Inhibition of 3-OH-BaP sulfotransferase activity by OH-PCBs with cDNA-expressed SULT1E1; details: for IC50: mean of duplicates
T3 construct: made in house; host or cells: Escherichia coli
T3 sequence (P49888 1-294): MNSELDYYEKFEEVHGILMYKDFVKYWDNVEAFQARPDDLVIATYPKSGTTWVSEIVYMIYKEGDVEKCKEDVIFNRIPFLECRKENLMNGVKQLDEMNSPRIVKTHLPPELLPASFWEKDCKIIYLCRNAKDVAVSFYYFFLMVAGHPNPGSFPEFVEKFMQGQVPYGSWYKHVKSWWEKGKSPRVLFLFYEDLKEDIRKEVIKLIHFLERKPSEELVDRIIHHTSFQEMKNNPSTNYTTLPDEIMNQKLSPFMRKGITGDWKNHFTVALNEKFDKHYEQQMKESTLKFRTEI
From the text: as §1, §2, §3, §4

SULT1B1 = molecular target: T4, SULT1B1 (Homo sapiens, UniProt O43704); assay: Inhibition of 3-OH-BaP sulfotransferase activity by OH-PCBs with cDNA-expressed SULT1B1; details: for IC50: mean of duplicates
T4 construct: made in house; host or cells: Escherichia coli
From the text: as §1, §2, §3, §4

SULT1A3 = molecular target: T5, SULT1A3 (Homo sapiens, UniProt P0DMM9); assay: Inhibition of 3-OH-BaP sulfotransferase activity by 50 μM OH-PCBs with cDNA-expressed SULT1A3; details: for inhibition at 50 µM: read-out: inhibition of 3-OH-BaP sulfonation by SULT1A3
T5 construct: made in house; host or cells: Escherichia coli
From the text: as §1, §2, §3, §4

[1] = 0.1 μM 3-OH-BaP, read-out: IC50 SULT1A1*1
[2] = 1.0 μM 3-OH-BaP, read-out: IC50 SULT1A1*1
[3] = 0.1 μM 3-OH-BaP, mean of duplicates, read-out: IC50 SULT1A1*2
[4] = 0.1 μM 3-OH-BaP, read-out: IC50 SULT1E1
[5] = 1.0 μM 3-OH-BaP, read-out: IC50 SULT1E1
[6] = 1.0 μM 3-OH-BaP, read-out: IC50 SULT1B1
[7] = IC50 SULT1A1*1, 0.1 μM 3-OH-BaP
[8] = IC50 SULT1A1*1, 1.0 μM 3-OH-BaP

T2 sequence (P50225 whole entry R213H): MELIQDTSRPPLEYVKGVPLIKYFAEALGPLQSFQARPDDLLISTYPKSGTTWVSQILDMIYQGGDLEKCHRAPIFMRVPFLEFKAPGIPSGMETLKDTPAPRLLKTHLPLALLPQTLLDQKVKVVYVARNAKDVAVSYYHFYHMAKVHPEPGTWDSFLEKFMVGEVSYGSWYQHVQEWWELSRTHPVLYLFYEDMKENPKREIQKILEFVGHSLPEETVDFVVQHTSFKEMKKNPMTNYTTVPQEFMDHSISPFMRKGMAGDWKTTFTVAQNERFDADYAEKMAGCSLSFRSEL
T4 sequence (O43704 whole entry): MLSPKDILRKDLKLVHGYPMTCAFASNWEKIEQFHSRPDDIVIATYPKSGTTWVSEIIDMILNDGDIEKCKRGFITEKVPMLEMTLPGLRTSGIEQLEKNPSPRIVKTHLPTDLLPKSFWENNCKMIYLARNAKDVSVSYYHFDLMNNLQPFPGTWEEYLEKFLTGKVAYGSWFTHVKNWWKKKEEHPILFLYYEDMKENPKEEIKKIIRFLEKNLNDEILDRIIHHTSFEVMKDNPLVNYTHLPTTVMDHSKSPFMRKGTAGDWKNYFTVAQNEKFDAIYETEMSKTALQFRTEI
T5 sequence (P0DMM9 whole entry): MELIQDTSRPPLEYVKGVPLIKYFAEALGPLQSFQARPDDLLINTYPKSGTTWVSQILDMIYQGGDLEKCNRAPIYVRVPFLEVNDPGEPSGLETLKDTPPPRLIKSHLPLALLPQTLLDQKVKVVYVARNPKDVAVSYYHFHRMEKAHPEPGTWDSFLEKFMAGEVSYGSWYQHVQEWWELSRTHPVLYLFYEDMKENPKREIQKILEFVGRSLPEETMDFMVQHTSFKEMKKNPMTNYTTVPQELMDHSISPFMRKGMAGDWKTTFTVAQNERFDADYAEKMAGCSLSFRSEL

SMILES | IC50 (SULT1A1*1; [1]) | IC50 (SULT1A1*1; [2]) | inhibitory potency in words, SULT1A1*1 (SULT1A1*1; both substrate concentrations (0.1 and 1.0 μM 3-OH-BaP)) | IC50 (SULT1A1*2; [3]) | IC50 (SULT1E1; [4]) | IC50 (SULT1E1; [5]) | inhibitory potency in words, SULT1E1 (SULT1E1; either substrate concentration (0.1 and 1.0 μM 3-OH-BaP)) | inhibitory potency in words, SULT1B1 (SULT1B1; 1.0 μM 3-OH-BaP) | IC50 (SULT1B1; [6]) | inhibition of 3-OH-BaP sulfonation by SULT1A3 (SULT1A3; 50 μM OH-PCB, 1.0 μM 3-OH-BaP) | inhibition at 50 µM (SULT1A3; 50 μM OH-PCB, 1.0 μM 3-OH-BaP) | IC50 (SULT1A1*1; [7]) | IC50 (SULT1A1*1; [8]) | IC50 (SULT1A1*2) | IC50 (SULT1E1; IC50 SULT1E1, 0.1 μM 3-OH-BaP) | IC50 (SULT1E1; IC50 SULT1E1, 1.0 μM 3-OH-BaP) | IC50 (SULT1B1; IC50 SULT1B1, 1.0 μM 3-OH-BaP) | inhibition at 50 µM (SULT1A3)
Oc1ccc(Cl)cc1-c1ccc(Cl)c(Cl)c1 [Compound A1, 6′-OH-CB35] | > 100 µM | > 100 µM | poor inhibitor | > 100 µM | ~100 µM | > 100 µM | poor inhibitor | fairly potent inhibitor | 4.72 µM | did not inhibit |  |  |  |  |  |  |  | 
Oc1ccc(-c2ccc(Cl)c(Cl)c2)cc1Cl [Compound B1, 4′-OH-CB35] | 0.77 µM | 25.2 µM |  | 0.55 µM | 0.24 µM | 1.02 µM |  |  | 16.8 µM |  | 2 to 20% |  |  |  |  |  |  | 
Oc1ccc(-c2cc(Cl)cc(Cl)c2)cc1Cl [Compound B2, 4′-OH-CB36] | 1.31 µM | 28 µM |  | 0.94 µM | 0.45 µM | 1.89 µM |  |  | 37 µM |  | 2 to 20% |  |  |  |  |  |  | 
Oc1ccc(-c2c(Cl)cc(Cl)cc2Cl)cc1Cl [Compound B3, 4′-OH-CB69] | 1.16 µM | 67.5 µM |  | 1.31 µM | 4.87 µM | 30.8 µM |  |  | > 100 µM | did not inhibit |  |  |  |  |  |  |  | 
Oc1ccc(-c2cc(Cl)c(Cl)c(Cl)c2Cl)cc1Cl [Compound B4, 4′-OH-CB106] |  |  |  |  |  |  |  |  |  | did not inhibit |  | 1.07 µM | 10.3 µM | 1.06 µM | 1.18 µM | 6.97 µM | 17.4 µM | 
Oc1c(Cl)cc(-c2ccc(Cl)c(Cl)c2)cc1Cl [Compound C1, 4′-OH-CB79] |  |  |  |  |  |  |  |  |  |  |  | 6.65 µM | 59.8 µM | 4.57 µM | 0.5 µM | 1.32 µM | 39.9 µM | 2 to 20%
Oc1c(Cl)cc(-c2cccc(Cl)c2)cc1Cl [Compound C2, 4-OH-CB36] | 3.09 µM | > 100 µM |  | 3.05 µM | 0.41 µM | 1.65 µM |  |  | 47.5 µM |  | 43% |  |  |  |  |  |  | 
Oc1c(Cl)cc(-c2c(Cl)cc(Cl)cc2Cl)cc1Cl [Compound C3, 4′-OH-CB121] |  |  |  |  |  |  |  |  |  | did not inhibit |  | 8.15 µM | 99.5 µM | 6.52 µM | 7.98 µM | 16.7 µM | > 100 µM | 
Oc1c(Cl)cc(-c2cc(Cl)c(Cl)c(Cl)c2Cl)cc1Cl [Compound C4, 4′-OH-CB159] | 2.16 µM | 34.1 µM |  | 1.67 µM | 1.3 µM | 3.55 µM |  |  | > 100 µM |  | 2 to 20% |  |  |  |  |  |  | 
Oc1c(Cl)cc(-c2c(Cl)c(Cl)cc(Cl)c2Cl)cc1Cl [Compound C5, 4′-OH-CB165] | 2.58 µM | 54.8 µM |  | 2.59 µM | 6.96 µM | 21.4 µM |  |  | > 100 µM | did not inhibit |  |  |  |  |  |  |  | 
Oc1c(Cl)cc(-c2cc(Cl)ccc2Cl)cc1Cl [Compound C6, 4′-OH-CB72] | 2.21 µM | 33.8 µM |  | 2.03 µM | 0.57 µM | 2.28 µM |  |  | > 100 µM | did not inhibit |  |  |  |  |  |  |  | 
